Reference: PMC8960591, “PCSK9 acts as a key regulator of Aβ clearance across the blood–brain barrier” (Cellular and Molecular Life Sciences: CMLS, 2022)

Tests used:
5xFAD mice [1] = assay: Fear conditioning (contextual and cued fear response, behaviour in training phase); format: in vivo, mouse; conditions: n = 8–13 per group
Protocol: (§1) 14-weeks-old female 5xFAD transgenic or wildtype littermates were randomized into groups with similar average body weights (18–20 g), respectively. 1 µg/g Alirocumab (Sanofi), Evolocumab (Amgen), or non-specific human IgG2 control antibody (Bio X Cell) in 0.9% isotonic saline solution (BBraun) or the analogous volume of pure 0.9% isotonic saline solution were weekly i.p. injected for a period of 10 weeks. 7 days before starting the injection procedure LRP1^BE−/− was induced by i.p. injection of 75 µg/g tamoxifen (Sigma-Aldrich) for 5 consecutive days and maintained with chow containing 400 mg/kg tamoxifen citrate (LASvendi). To sacrifice animals, mice were anesthetized with 100 µg/g ketamine (Pfizer) in combination with 10 µg/g xylazine (Bayer HealthCare) and euthanized by cervical dislocation.
24-week-old female 5xFAD mice LRP1^BEfl/fl or LRP1^BE−/− and wildtype age-matched female littermates treated as described earlier were assessed for contextual and cued fear response adapted to previous studies, using the computerized TSE Multi Conditioning System (TSE GmbH). Movement was assessed by high-resolution infrared sensors (100 Hz) in three dimensions (14 mm distant) and documented by the FCS software. In the training phase, mice were placed in the conditioning chamber for 3 min, followed by a 30-s tone application (72 dB, 9 kHz). During the last 2 s, the tone was accompanied by shock delivery (0.7 mA). Contextual memory testing was performed 24 h-post conditioning, confronting the animals 3 min to the training context without tone application. Cued memory was assessed 2 h later, by pre-exposing the animals 3 min to a non-conditioned context, followed by a tone application for 60 s according to the training session. Freezing behavior (the absence of all but respiratory movements ≥ 2 s), motoric abilities, environmental behavior (% of explored area), and activity (≥ 30 mm/s)/hyperactivity (≥ 200 mm/s) levels were recorded automatically.
Fig. 6 Peripheral PCSK9 inhibition improves contextual memory formation of 5xFAD transgenic mice in a Fear Conditioning paradigm. 6-month-old 5xFAD mice treated with 1 µg/g Alirocumab or 0.9% NaCl for 10 weeks were analyzed for A hippocampus-dependent contextual fear response and B hippocampus-independent cued fear response in comparison to wildtype and LRP1^BE−/− littermates. […] Higher freezing behavior percentage indicates stronger memory formation. Data represent mean ± SEM of n = 8–13 mice per group. For statistical analyses one-way ANOVA followed by Tukey’s multiple comparison test was used (*p < 0.05; **p < 0.01)

5xFAD mice [2] = assay: Immunoblot of liver lysates, serum, capillary-depleted brain fractions and CSF; format: in vivo, mouse; conditions: 6-month-old 5xFAD mice, 1 µg/g Alirocumab for 10 weeks vs 0.9% NaCl
Protocol: as §1, with “To sacrifice animals, mice were anesthetized with 100 µg/g ketamine (Pfizer) in combination with 10 µg/g xylazine (Bayer HealthCare) and euthanized by cervical dislocation.” left out
Protein concentrations were determined using the Pierce™ BCA Protein Assay Kit (Thermo Fisher Scientific) according to the manufacturer’s protocol. […]
Fig. 3 Systemic PCSK9 inhibition increases peripheral LRP1 level. A Liver lysates, B serum, as well as C capillary-depleted brain fractions and D CSF samples of 6-month-old 5xFAD mice, treated repetitively with A–C 1 µg/g Alirocumab or D Evolocumab in comparison to A–C 0.9% NaCl or D non-specific human control IgG2 for 10 weeks were evaluated via immunoblot analyses for LRP1 (full length, α-chain, β-chain), LDL receptor, human as well as mouse IgG, and ApoE, and representatively presented. […]

5xFAD mice [3] = assay: Brain Aβ1–40 and Aβ1–42 ELISA of soluble and insoluble brain fractions after repetitive anti-PCSK9 antibody injection; format: in vivo, mouse; conditions: n = 4–14 per group
Protocol: as §1
Extracted blood was supplemented with an EDTA-free protease inhibitor cocktail (Roche Applied Science) and allowed to clot at room temperature for 10 min. Liver were weighed and homogenized in 3 ml/g fresh cold tissue lysis buffer [50 mmol/l Tris (pH 7.4), 150 mmol/l NaCl, 0.1% (w/v) SDS, 1% (v/v) Nonidet P-40, 0.5% (w/v) sodium deoxycholate, 1 mmol/l EDTA (pH 7.4)] containing an EDTA-free protease inhibitor cocktail using the Precellys Lysing Kit (Bertin instruments). Extracts were purified for 3 min (18,620 rcf, 4 °C). CSF samples were isolated via puncture of cisterna magna as described previously and purified for 10 min (1000 rcf, 4 °C). Brains were weighed and soluble and insoluble brain fractions sequential extracted. Initially, homogenization by a glass homogenizer occurred in 6 ml/g PBS, containing an EDTA-free protease inhibitor cocktail and 1 mmol/l EDTA (pH 7.4). The homogenate was centrifuged for 20 min (131,700 rcf, 4 °C) and the supernatant (soluble brain fraction) isolated. Subsequently, the brain pellet was homogenized in 4 ml/g PBS containing 2% (v/v) SDS using the Precellys Lysing Kit. Centrifugation was repeated and the supernatant (insoluble brain fraction) collected. The preparation of capillary-depleted brain fractions based on an established protocol. Briefly, brains were weighed, homogenized by a glass homogenizer in 6 ml/g PBS, and centrifuged for 5 min (1350 rcf, 4 °C). The pellet was resuspended in 3 ml/g PBS, containing 18% dextran (~ 70,000 g/mol; Roth), vortexed thoroughly for 1 min, and centrifuged for 10 min (4863 rcf, 4 °C). Subsequently, the supernatant (capillary-free brain fraction) was transferred, mixed thoroughly with 3 ml/g PBS, and centrifuged for 5 min (1350 rcf, 4 °C). The brain parenchymal pellet was lysed for 20 min using tissue lysis buffer containing an EDTA-free protease inhibitor cocktail and 1 mmol/l EDTA (pH 7.4) and purified for 20 min (18,620 rcf, 4 °C). Each isolated sample was snap frozen via liquid nitrogen and stored at − 80 °C.
The levels of Aβ1–40 and Aβ1–42 in soluble and insoluble brain fractions were blindly determined using Human Amyloid β (FL) Assay Kits (Immuno-Biological Laboratories) according to the manufacturer’s protocol.
Fig. 4 Peripheral PCSK9 inhibition reduces overall Aβ burden. […] Lanes were run on the same gel but were noncontinuous. Aβ1–40 and Aβ1–42 signals were verified by loading peptide standards. Data represent mean ± SEM of n = 4–14 mice per group. For statistical analyses one-way ANOVA followed by Tukey’s multiple comparison test was used (*p < 0.05; **p < 0.01)

5xFAD mice [4] = assay: Plaque load quantification by immunofluorescence; format: in vivo, mouse; conditions: 6-month-old 5xFAD mice, 1 µg/g Alirocumab for 10 weeks vs 0.9% NaCl, plaques ≥ 80 µm2, mean
Protocol: as §1, with “To sacrifice animals, mice were anesthetized with 100 µg/g ketamine (Pfizer) in combination with 10 µg/g xylazine (Bayer HealthCare) and euthanized by cervical dislocation.” left out
Mice were transcardially perfused with ice-cold PBS followed by 4% Roti®-Histofix (Roth). […] Within one hemisphere 12 sections were analyzed; 6 representatives for prefrontal cortex (corresponding to bregma from 0.86 to + 0.62 mm) and 6 for the hippocampus (corresponding to bregma from − 1.82 to − 2.06 mm). Plaque load (aggregates ≥ 80 µm^2) was quantified using the NIH ImageJ 1.52 software as described previously.
Fig. 5 Aβ plaque load of prefrontal cortex and hippocampus is reduced due to systemic PCSK9 inhibition. A Prefrontal cortex and B hippocampus of 6-month-old 5xFAD mice treated with 1 µg/g alirocumab or 0.9% NaCl for ten weeks were quantified for amyloid plaques. […]

5xFAD mice [5] = assay: Serum LDL/VLDL and HDL cholesterol; format: in vivo, mouse; conditions: 6-month-old 5xFAD mice, 1 µg/g Evolocumab for 10 weeks vs non-specific human IgG2 control antibody; n = 8–9 per group
Protocol: as §1
Serum VLDL/LDL and HDL cholesterol were separated and concentrations blindly determined using the Cholesterol Assay Kit—HDL and LDL/VLDL (Abcam) according to the manufacturer’s protocol.
Supplementary Fig. 2 Systemic PCSK9 inhibition reduces serum LDL/VLDL and free PCSK9 levels. (A) Serum LDL/VLDL- and (B) HDL-cholesterol levels of 6-months-old 5xFAD mice, treated repetitively with 1 µg/g Evolocumab or non-specific human IgG2 control antibody for ten weeks were assessed via ELISA. […] Levels of immunoprecipitated PCSK9 were evaluated via immunoblot analyses and representatively presented

PCSK9 = biological target: T1, PCSK9 (Mus musculus, UniProt Q80W65); assay: Free circulating PCSK9 in serum (immunoprecipitation with crosslinked Evolocumab, immunoblot); format: in vivo; conditions: 6-month-old 5xFAD mice, 1 µg/g Evolocumab for 10 weeks vs non-specific human IgG2 control antibody
T1 construct: substantially decreases the amount of free circulating PCSK9; from tissue; host or cells: serum of 6-month-old 5xFAD mice
T1 sequence (Q80W65 156-694): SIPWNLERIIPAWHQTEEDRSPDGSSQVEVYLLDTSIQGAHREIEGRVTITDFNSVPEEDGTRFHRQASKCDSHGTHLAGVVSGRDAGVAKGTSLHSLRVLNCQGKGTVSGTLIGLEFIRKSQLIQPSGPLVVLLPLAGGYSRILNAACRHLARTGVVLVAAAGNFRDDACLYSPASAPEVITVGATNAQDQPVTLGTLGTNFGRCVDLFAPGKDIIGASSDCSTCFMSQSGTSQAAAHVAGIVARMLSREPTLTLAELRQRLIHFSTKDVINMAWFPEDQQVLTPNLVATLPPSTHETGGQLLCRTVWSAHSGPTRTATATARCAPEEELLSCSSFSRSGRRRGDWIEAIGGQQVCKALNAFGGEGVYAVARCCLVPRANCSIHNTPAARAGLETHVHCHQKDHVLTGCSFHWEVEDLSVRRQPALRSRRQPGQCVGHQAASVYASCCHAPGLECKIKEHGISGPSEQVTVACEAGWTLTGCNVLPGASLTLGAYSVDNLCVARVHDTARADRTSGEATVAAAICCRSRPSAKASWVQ
Protocol: Precleared serum via raw Protein A Agarose (Roche) was diluted in PBS containing an EDTA-free protease inhibitor cocktail and incubated with Protein A Agarose crosslinked to Evolocumab overnight at 4 °C. Beads were washed three times with PBS, followed by elution in 100 mmol/l glycine (pH 2.7) and neutralization with 500 mmol/l tris (pH 8.0).
Supplementary Fig. 2 Systemic PCSK9 inhibition reduces serum LDL/VLDL and free PCSK9 levels. (A) Serum LDL/VLDL- and (B) HDL-cholesterol levels of 6-months-old 5xFAD mice, treated repetitively with 1 µg/g Evolocumab or non-specific human IgG2 control antibody for ten weeks were assessed via ELISA. Data represents mean ± SEM of n = 8 - 9 mice per group. For statistical analyses unpaired two-tailed t-test was used (*p <0.05). (C) Additionally, serum samples were precleared by using raw Protein A Agarose and incubated with Protein A Agarose crosslinked to Evolocumab. Levels of immunoprecipitated PCSK9 were evaluated via immunoblot analyses and representatively presented

[6] = 5xFAD LRP1BE−/− mice, 1 µg/g Alirocumab for 10 weeks vs 0.9% NaCl
[7] = 6-month-old 5xFAD mice, 1 µg/g Alirocumab for 10 weeks vs 0.9% NaCl
[8] = 6-month-old female 5xFAD mice, 1 µg/g Alirocumab i.p. weekly for 10 weeks vs 0.9% NaCl, mean

| free PCSK9 level in serum (PCSK9) | Molecule | hippocampus-dependent learning capacity (contextual fear) (5xFAD mice [1]; [6]) | hippocampus-independent cued fear response (5xFAD mice [1]; 5xFAD, 5xFAD LRP1BE−/− and wildtype littermates, PCSK9 inhibition or control, 2 h after contextual test) | contextual fear response (freezing) vs control-treated 5xFAD mice (5xFAD mice [1]; 6-month-old 5xFAD mice, 1 µg/g Alirocumab for 10 weeks vs 0.9% NaCl, 24 h post-training) | activity and hyperactivity levels and basal freezing during the conditioning phase (5xFAD mice [1]; [7]) | motoric abilities and environmental behavior during the conditioning phase (5xFAD mice [1]; [7]) | contextual freezing vs control-treated wildtype littermates (5xFAD mice [1]; 6-month-old 5xFAD mice, 1 µg/g Alirocumab for 10 weeks, 24 h post-training) | contextual freezing, treated vs control-treated wildtype animals (5xFAD mice [1]; wildtype littermates, 1 µg/g Alirocumab for 10 weeks vs 0.9% NaCl) | peripheral LRP1 level (liver lysates) (5xFAD mice [2]) | soluble and insoluble Aβ1–40 and Aβ1–42 levels vs control-treated mice (5xFAD mice [3]; [6]) | reduction of insoluble brain Aβ1–40 (5xFAD mice [3]; [8]) | reduction of insoluble brain Aβ1–42 (5xFAD mice [3]; [8]) | reduction of soluble brain Aβ1–40 (5xFAD mice [3]; [8]) | reduction of soluble brain Aβ1–42 (5xFAD mice [3]; [8]) | reduction of plaque load, hippocampus (5xFAD mice [4]; n = 3–4 per group) | reduction of plaque load, prefrontal cortex (5xFAD mice [4]; n = 8 per group) | serum LDL/VLDL-cholesterol level (5xFAD mice [5]) |
| --- | --- | --- | --- | --- | --- | --- | --- | --- | --- | --- | --- | --- | --- | --- | --- | --- | --- |
| – | Alirocumab: FDA-approved monoclonal anti-PCSK9 antibody (Sanofi) | do not significantly benefit | no significant differences | significant increased | No differences | No differences | no significant difference | did not detect any significant difference | increases | no significant difference | ~ 44% | ~ 38% | ~ 58% | ~ 51% | ~ 23% | ~ 17% | – |
| reduces | Evolocumab: FDA-approved monoclonal anti-PCSK9 antibody (Amgen) (antibody, chains of the INN, looked up, V domains shown) VH: EVQLVQSGAEVKKPGASVKVSCKASGYTLTSYGISWVRQAPGQGLEWMGWVSFYNGNTNYAQKLQGRGTMTTDPSTSTAYMELRSLRSDDTAVYYCARGYGMDVWGQGTTVTVSS VL: ESALTQPASVSGSPGQSITISCTGTSSDVGGYNSVSWYQQHPGKAPKLMIYEVSNRPSGVSNRFSGSKSGNTASLTISGLQAEDEADYYCNSYTSTSMVFGGGTKLTVL | – | – | – | – | – | – | – | – | – | – | – | – | – | – | – | reduces |
